The test system of experiment [1] is CD8+ cells in HNSCC tumour slices. In words: Flow cytometry of granzyme B expression in CD8+ cells of drug-treated HNSCC patient tumour slices. The experiment is classed as cell-based, human. How it is done: Tumour slices were first manually removed from the hydrogel and digested. Dissociated cells were spun down, washed, and resuspended, and counted using a cell counter. Prior to fixing, cells were stained for surface proteins with fluorophore-conjugated antibodies and fixable dye. The cell suspension were then […]. Compensation was performed using single stains; live cells and singlets were gated by gating on a dye differentiating live and dead cells or on scatter characteristics or both.

The subject of experiment [2] is cancer cells within HNSCC patient tumour slices. In words: Cancer cell kill: pan-cytokeratin+ / cleaved caspase-3+ cells by dual IHC or IF in drug-treated tumour slices. The experiment is classed as cell-based, human. The method, then: H&E staining and dual IHC were performed on drug-treated and untreated HNSCC slices. Briefly, slices were fixed, processed using the automatic tissue processor, and embedded in paraffin. Paraffin blocks were sectioned and H&E staining was performed. Dual IHC was performed using ChromoPlex 1 Dual Detection (Leica DS9665) with a high pH EDTA-based buffer (ER2, Leica AR9640) for 20 min. A specific cocktail of antibodies was used to identify cancer cell apoptosis, including pan-cytokeratin and cleaved caspase-3 antibody. Standard immunofluorescence were performed with active YAP1. Image acquisition was done using the slide scanning system. The images were processed with a customized analysis profile using the nuclear segmentation method to quantify the percentage of apoptotic cancer cells.

On to pembrolizumab, for which the “granzyme B expression in CD8+ cells” value in experiment [1] (Patient 6 (HN358), control 8.9%) is 5.2%; in experiment [1] (Patient 7 (HN359), compared to control) it was “slight increase”. Moreover, the “cleaved caspase-3 positivity (apoptotic) in cancer cells” value in experiment [2] (Patient 6 (HN358), Day 2, controls ~11%) is around 25%. The “tumour kill in drug-treated slices” value in experiment [2] (Patient 7 (HN359)) is given as “no enhanced tumour kill”.

`N.N.[Cl][Pt][Cl]` [cisplatin] displayed an apoptotic cancer cells in experiment [2] (Patient 6 (HN358), controls ~5%) of around 12%.

Values taken from US20240201170A1, “MAINTENANCE AND/OR CULTURE OF TISSUE SLICES IN VITRO OR EX VIVO” (NATIONAL UNIVERSITY OF SINGAPORE, priority 2021, published 2024).
